Assay results as given in patent US20240382629A1, “HETEROBIVALENT AND HOMOBIVALENT AGENTS TARGETING FIBROBLAST ACTIVATION PROTEIN ALPHA AND/OR PROSTATE-SPECIFIC MEMBRANE ANTIGEN” (The Johns Hopkins University, priority 2021, published 2024).

Experiments:
[1] = Stability of radiotracer in PBS and bovine serum albumin; assay type: physicochemical; details: in PBS and bovine serum albumin at 37° C.
Method: Click chemistry was used to conjugate the FAP and PSMA targeting moieties with the selected linker. Radiolabeling employed a rapid microwave-assisted method to generate ^64Cu-FP-L1 in nearly quantitative yield. High-performance liquid chromatography (HPLC) was used to remove unreacted ligand to ensure high specific radioactivity (>19 MBq/nmol). ^64Cu-FP-L1 was stable for at least 4 h in PBS and bovine serum albumin at 37° C.

[2] = tested on: U87 tumor; experiment: PET imaging and tissue biodistribution in U87 tumor-bearing mice; assay type: in vivo, mouse
Method: (§1) Cell uptake assays, flow cytometry, and IHC were performed as described previously. Banerjee et al., 2019; Nimmagadda et al., 2018. PET imaging and biodistribution Sequential PET imaging and biodistribution studies were conducted to quantify and validate PET imaging data. Briefly, tumor-bearing mice were administrated approximately 7.4 MBq of radiotracer in 150 μL saline via tail-vein injection. They were randomized into the indicated groups of 3-4 mice before radiotracer injection.
In Experiment 1, bilateral xenografts of U87 (right flank) and PSMA+ PC3 PIP (left flank) tumors were established in male NSG mice (n=3), which underwent imaging followed by biodistribution over 24 h. […] A biodistribution study was further conducted with U87 tumors at 2 h post-injection (n=3) to compare the tissue distribution properties of ^64Cu-FP-L1 and ^64Cu-FAPI-04.

[3] = tested on: PSMA+ PC3 PIP tumor; experiment: PET imaging and biodistribution in PSMA+ PC3 PIP tumor-bearing mice; assay type: in vivo, mouse
Method: as §1, with “Banerjee et al., 2019; Nimmagadda et al., 2018.” left out

[4] = tested on: PSMA+ 786-O tumor; experiment: PET imaging and biodistribution in PSMA+ 786-O ccRCC tumor-bearing mice; assay type: in vivo, mouse; details: 2 h
Method: Experiment 4 consisted of preliminary imaging (7.4 MBq) (n=2) and biodistribution studies (0.74 MBq) at 2 h in male NSG healthy mice (n=3) and tumor-bearing human clear cell renal cell carcinoma (ccRCC) PSMA+786-O tumors (n=4).

[5] = 1 h, NSG mice, U87 tumor, n=3-4, in %ID/g
[6] = 1 h block, 10 nmol FAPI-04, NSG mice, U87 tumor, in %ID/g
[7] = 2 h (n = 4), NSG mice, U87 tumor, in %ID/g
[8] = 2 h, blocking with FAPI-04 (500 nmol/kg)
[9] = 2 h Nude mice (n = 4), in %ID/g
[10] = 4 h, NSG mice, U87 tumor, in %ID/g
[11] = 24 h, NSG mice, U87 tumor, in %ID/g
[12] = U87 in NSG mice, 20 μCi, n=3, G2/G3 and FAPI-04, in %ID/g
[13] = male NSG mice bearing U87 xenografts, 2 h, n=3-4
[14] = blocking with ZJ43 (500 nmol/kg)

N#C[C@@H]1CCCN1C(=O)CNC(=O)c1ccnc2ccc(OCCCNC(=O)CCc3cn(CCOCCOCCOCCC(=O)N[C@@H](CCCCNC(=O)CN4CCN(CC(=O)O)CCN(CC(=O)O)CC4)C(=O)NCCCCC(=O)N(CCCC[C@H](NC(=O)N[C@@H](CCC(=O)O)C(=O)O)C(=O)O)Cc4ccc(Br)cc4)nn3)cc12 [^64Cu-FP-L1, metal not drawn]
Stability (stable for at least) [1]: at least 4 h | Biodistribution: Bladder [2, 5]: 2.41 ± 0.62 | Biodistribution: Blood [2, 5]: 10.12 ± 3.23 | Biodistribution: Bone [2, 5]: 4.17 ± 0.13 | Biodistribution: Fat [2, 5]: 0.77 ± 0.12 | Biodistribution: Heart [2, 5]: 3.42 ± 2.73 | Biodistribution: Kidney [2, 5]: 21.58 ± 5.33 | Biodistribution: Lac.gl [2, 5]: 5.47 ± 4.13 | Biodistribution: Liver [2, 5]: 5.35 ± 0.43 | Biodistribution: Lung [2, 5]: 5.32 ± 1.42 | Biodistribution: Muscle [2, 5]: 2.29 ± 0.08 | Biodistribution: Pancreas [2, 5]: 7.17 ± 1.19 | Biodistribution: Sal.gl [2, 5]: 12.01 ± 3.62 | Biodistribution: Sm.in [2, 5]: 4.22 ± 1.78 | Biodistribution: Spleen [2, 5]: 2.20 ± 0.54 | Biodistribution: Stomach [2, 5]: 2.51 ± 0.25 | Biodistribution: Tumor [2, 5]: 12.04 ± 2.39 | Biodistribution: Bladder [2, 6]: 1.22 ± 0.15 | Biodistribution: Blood [2, 6]: 1.38 ± 0.19 | Biodistribution: Bone [2, 6]: 0.72 ± 0.08 | Biodistribution: Fat [2, 6]: 0.31 ± 0.04 | Biodistribution: Heart [2, 6]: 0.94 ± 0.35 | Biodistribution: Kidney [2, 6]: 6.09 ± 0.18 | Biodistribution: Lac.gl [2, 6]: 1.48 ± 0.45 | Biodistribution: Liver [2, 6]: 6.19 ± 1.06 | Biodistribution: Lung [2, 6]: 2.63 ± 0.27 | Biodistribution: Muscle [2, 6]: 0.38 ± 0.05 | Biodistribution: Pancreas [2, 6]: 1.01 ± 0.10 | Biodistribution: Sal.gl [2, 6]: 2.00 ± 0.19 | Biodistribution: Sm.in [2, 6]: 3.00 ± 0.22 | Biodistribution: Spleen [2, 6]: 1.55 ± 0.07 | Biodistribution: Stomach [2, 6]: 1.96 ± 0.07 | Biodistribution: Tumor [2, 6]: 4.37 ± 0.70 | Biodistribution: Bladder [2, 7]: 2.68 ± 0.83 | Biodistribution: Blood [2, 7]: 9.93 ± 2.13 | Biodistribution: Bone [2, 7]: 5.36 ± 1.89 | Biodistribution: Fat [2, 7]: 0.66 ± 0.52 | Biodistribution: Heart [2, 7]: 4.62 ± 0.68 | Biodistribution: Kidney [2, 7]: 26.85 ± 7.39 | Biodistribution: Lac.gl [2, 7]: 8.11 ± 1.24 | Biodistribution: Liver [2, 7]: 6.15 ± 0.65 | Biodistribution: Lung [2, 7]: 5.65 ± 1.54 | Biodistribution: Muscle [2, 7]: 2.10 ± 0.13 | Biodistribution: Pancreas [2, 7]: 5.98 ± 0.58 | Biodistribution: Sal.gl [2, 7]: 8.96 ± 1.47 | Biodistribution: Sm.in [2, 7]: 6.12 ± 1.91 | Biodistribution: Spleen [2, 7]: 2.68 ± 0.62 | Biodistribution: Stomach [2, 7]: 2.19 ± 0.33 | Biodistribution: Tumor [2, 7]: 14.65 ± 3.68 | Tumor uptake, FAP+ U87 tumor ([2]; 2 h, bilateral U87 / PSMA+ PC3 PIP model): 16.96±5.01 % ID/g | Uptake in U87 tumor with FAP blockade [2, 8]: 2.47±0.82 % ID/g | Biodistribution: Bladder [2, 9]: 1.80 ± 0.24 | Biodistribution: Blood [2, 9]: 6.50 ± 1.05 | Biodistribution: Bone [2, 9]: 3.51 ± 0.45 | Biodistribution: Fat [2, 9]: 0.86 ± 0.03 | Biodistribution: Heart [2, 9]: 2.77 ± 0.25 | Biodistribution: Kidney [2, 9]: 11.66 ± 0.95 | Biodistribution: Lac.gl [2, 9]: 5.44 ± 0.78 | Biodistribution: Liver [2, 9]: 4.16 ± 0.66 | Biodistribution: Lung [2, 9]: 4.37 ± 0.48 | Biodistribution: Muscle [2, 9]: 1.80 ± 0.26 | Biodistribution: Pancreas [2, 9]: 5.04 ± 0.36 | Biodistribution: Sal.gl [2, 9]: 5.60 ± 0.94 | Biodistribution: Sm.in [2, 9]: 4.33 ± 1.13 | Biodistribution: Spleen [2, 9]: 1.88 ± 0.35 | Biodistribution: Stomach [2, 9]: 2.02 ± 0.22 | Biodistribution: Tumor [2, 9]: 7.25 ± 1.24 | Biodistribution: Bladder [2, 10]: 1.72 ± 0.33 | Biodistribution: Blood [2, 10]: 3.91 ± 0.73 | Biodistribution: Bone [2, 10]: 2.39 ± 0.37 | Biodistribution: Fat [2, 10]: 0.53 ± 0.10 | Biodistribution: Heart [2, 10]: 2.13 ± 0.17 | Biodistribution: Kidney [2, 10]: 16.57 ± 2.68 | Biodistribution: Lac.gl [2, 10]: 3.72 ± 0.72 | Biodistribution: Liver [2, 10]: 5.52 ± 0.39 | Biodistribution: Lung [2, 10]: 3.31 ± 0.26 | Biodistribution: Muscle [2, 10]: 1.08 ± 0.10 | Biodistribution: Pancreas [2, 10]: 3.19 ± 0.11 | Biodistribution: Sal.gl [2, 10]: 4.80 ± 0.82 | Biodistribution: Sm.in [2, 10]: 4.26 ± 0.33 | Biodistribution: Spleen [2, 10]: 2.05 ± 0.13 | Biodistribution: Stomach [2, 10]: 2.02 ± 0.30 | Biodistribution: Tumor [2, 10]: 13.81 ± 1.78 | Tumor uptake, FAP+ U87 tumor ([2]; 4 h, bilateral U87 / PSMA+ PC3 PIP model): 19.05±5.89 % ID/g | Biodistribution: Bladder [2, 11]: 0.57 ± 0.13 | Biodistribution: Blood [2, 11]: 0.91 ± 0.23 | Biodistribution: Bone [2, 11]: 0.48 ± 0.08 | Biodistribution: Fat [2, 11]: 0.23 ± 0.10 | Biodistribution: Heart [2, 11]: 1.19 ± 0.34 | Biodistribution: Kidney [2, 11]: 2.45 ± 0.32 | Biodistribution: Lac.gl [2, 11]: 0.87 ± 0.14 | Biodistribution: Liver [2, 11]: 4.21 ± 1.00 | Biodistribution: Lung [2, 11]: 2.07 ± 0.40 | Biodistribution: Muscle [2, 11]: 0.23 ± 0.04 | Biodistribution: Pancreas [2, 11]: 0.72 ± 0.15 | Biodistribution: Sal.gl [2, 11]: 0.92 ± 0.14 | Biodistribution: Sm.in [2, 11]: 2.16 ± 0.29 | Biodistribution: Spleen [2, 11]: 1.67 ± 0.32 | Biodistribution: Stomach [2, 11]: 1.27 ± 0.14 | Biodistribution: Tumor [2, 11]: 3.25 ± 0.05 | Tumor uptake, FAP+ U87 tumor ([2]; 24 h, bilateral U87 / PSMA+ PC3 PIP model): 4.31±0.75 % ID/g | Biodistribution: Bladder [2, 12]: 6.81 ± 3.65 | Biodistribution: Blood [2, 12]: 2.29 ± 0.17 | Biodistribution: Bone [2, 12]: 3.32 ± 0.74 | Biodistribution: Fat [2, 12]: 1.03 ± 0.39 | Biodistribution: Heart [2, 12]: 1.58 ± 0.17 | Biodistribution: Kidney [2, 12]: 9.05 ± 0.88 | Biodistribution: Lacrimal [2, 12]: 3.32 ± 0.36 | Biodistribution: Liver [2, 12]: 4.27 ± 0.53 | Biodistribution: Lung [2, 12]: 2.71 ± 0.40 | Biodistribution: Muscle [2, 12]: 1.52 ± 0.20 | Biodistribution: Pancreas [2, 12]: 1.02 ± 0.72 | Biodistribution: Salivary [2, 12]: 4.64 ± 0.26 | Biodistribution: Sm. Intest. [2, 12]: 3.01 ± 0.08 | Biodistribution: Spleen [2, 12]: 1.83 ± 0.14 | Biodistribution: Stomach [2, 12]: 2.17 ± 0.12 | Biodistribution: U87 [2, 12]: 7.79 ± 1.12 | Bone uptake ([2]; bilateral U87 / PSMA+ PC3 PIP model): > 1 % ID/g | Biodistribution: Bladder [2, 13]: 6.16 ± 4.37 % ID/g | Biodistribution: Blood [2, 13]: 1.87 ± 0.24 % ID/g | Biodistribution: Bone [2, 13]: 2.02 ± 0.79 % ID/g | Biodistribution: Fat [2, 13]: 0.35 ± 0.20 % ID/g | Biodistribution: Heart [2, 13]: 1.36 ± 0.28 % ID/g | Biodistribution: Kidney [2, 13]: 7.26 ± 2.83 % ID/g | Biodistribution: Lacrimal glands [2, 13]: 4.74 ± 1.57 % ID/g | Biodistribution: Liver [2, 13]: 4.05 ± 0.53 % ID/g | Biodistribution: Lung [2, 13]: 2.80 ± 0.68 % ID/g | Biodistribution: Muscle [2, 13]: 1.11 ± 0.23 % ID/g | Biodistribution: Pancreas [2, 13]: 0.99 ± 0.18 % ID/g | Biodistribution: Salivary Glands [2, 13]: 3.10 ± 0.51 % ID/g | Biodistribution: Sm. Intestine [2, 13]: 2.32 ± 0.79 % ID/g | Biodistribution: Spleen [2, 13]: 1.39 ± 0.10 % ID/g | Biodistribution: Stomach [2, 13]: 1.89 ± 0.10 % ID/g | Biodistribution: U87 [2, 13]: 10.83 ± 1.02 % ID/g | Uptake in PSMA+ PC3 PIP tumor ([3]; 2 h): 12.06±0.78 % ID/g | Uptake in PSMA+ PC3 PIP tumors with FAP blockade [3, 8]: 18.56±2.02 % ID/g | Uptake in PSMA+ PC3 PIP tumor ([3]; 4 h): 18.89±3.95 % ID/g | Uptake in PSMA+ PC3 PIP tumor ([3]; 24 h): 10.51±1.82 % ID/g | Fold lower kidney uptake with ZJ43 vs unblocked ([3]; ZJ43 (500 nmol/kg)): > 2 fold | Kidney uptake with PSMA blockade [3, 14]: 2.97±0.23 % ID/g | Uptake in PSMA+ PIP tumor with PSMA blockade [3, 14]: 7.48±0.5 % ID/g | Tumor uptake and retention in PSMA+PC3 PIP tumor ([3]; from 1 to 24 h post-injection): > 10 % injected dose per gram of tissue | Kidney uptake, unblocked agent ([3]; unblocked): 8.03±0.89 % ID/g | Tumor uptake, PSMA+ 786-O [4]: 11.97±1.63 % ID/g | Renal uptake in PSMA+ 786-O xenograft-bearing NSG mice vs healthy NSG mice ([4]; head-to-head biodistribution): high renal uptake compared to healthy mice
